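Briefly, cells in 96-well plates were exposed to five compound concentrations for 48 h, and endpoints were estimated by linear interpolation. GI50 marks 50% less growth. TGI marks complete inhibition of growth.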 Where a SMILES comes first, the peptide text is derived from it. The star is where a group is joined. Cbz = O=C(OCc1ccccc1)*; Boc = CC(C)(C)OC(=O)*; OSu = O=C1CCC(=O)N1O*; Bn = c1ccc(C*)cc1
Experiments:
Assay in all cases: inhibition of tumour cell growth, NCI panel, 48 h
UACC-62 melanoma = tested on: UACC-62 melanoma
SK-MEL-2 melanoma = tested on: SK-MEL-2 melanoma
EKVX NSCLC = tested on: EKVX NSCLC
T-47D breast = tested on: T-47D breast
COLO 205 colon = tested on: COLO 205 colon
A549 NSCLC = tested on: A549 NSCLC
HCT-116 colon = tested on: HCT-116 colon
NCI-H226 lung = tested on: NCI-H226 lung
A498 renal = tested on: A498 renal

Row | SMILES | TGI (UACC-62 melanoma) [µM] | TGI (SK-MEL-2 melanoma) [µM] | TGI (EKVX NSCLC) [µM] | TGI (T-47D breast) [µM] | TGI (COLO 205 colon) [µM] | TGI (A549 NSCLC) [µM] | TGI (HCT-116 colon) [µM] | TGI (NCI-H226 lung) [µM] | TGI (A498 renal) [µM] | GI50 (UACC-62 melanoma) [µM] | GI50 (SK-MEL-2 melanoma) [µM] | GI50 (EKVX NSCLC) [µM] | GI50 (T-47D breast) [µM] | GI50 (COLO 205 colon) [µM] | GI50 (A549 NSCLC) [µM] | GI50 (A498 renal) [µM] | GI50 (HCT-116 colon) [µM] | GI50 (NCI-H226 lung) [µM]
1 | COc1cc2c(cc1OC)C(=O)/C(=C/c1ccc(N(C)C)cc1)CC2 | > 10 | > 10 | > 10 | > 10 | > 10 | > 10 | > 10 | > 10 | – | – | – | – | – | – | – | – | – | –
2 | CC(C)(C)OC(=O)NC(Cc1ccc(OCc2ccccc2)cc1)C(=O)NC(CCCCNC(=O)OCc1ccccc1)C(=O)NC(CCCCNC(=O)OCc1ccccc1)C(=O)ON1C(=O)CCC1=O (stereo not drawn) (Boc-Tyr(Bn)-Lys(Cbz)-Lys(Cbz)-OSu; configuration not given here) | 34.6 | 99.4 | > 100 | > 100 | > 100 | > 100 | 58.7 | – | – | – | – | – | – | – | – | – | – | –
3 | COc1cccc(N=NN2CCCC2)c1 | > 100 | > 100 | > 100 | > 100 | > 100 | – | > 100 | > 100 | > 100 | – | – | – | – | – | – | – | – | –
4 | COC1OC(C(=O)O)C2OC(C)(C)OC12 (stereo not drawn) | > 100 | > 100 | > 100 | – | > 100 | > 100 | > 100 | > 100 | – | – | – | – | – | – | – | – | – | –
5 | Cc1ccc(-n2cc(-c3ccc(Cl)cc3)c3c(=N)n(N)cnc32)cc1 | 26.4 | 26.8 | 29.9 | – | 20.7 | 29 | 20.3 | 38.2 | 29.5 | – | – | – | – | – | – | – | – | –
6 | COc1cc(/C=C2/Oc3c(OC)cccc3C2=O)ccc1O | > 100 | > 100 | > 100 | – | > 100 | > 100 | > 100 | > 100 | > 100 | – | – | – | – | – | – | – | – | –
7 | Clc1cc2ncn(C3CCCCO3)c2cc1Cl (stereo not drawn) | > 100 | > 100 | 92.4 | > 100 | > 100 | > 100 | > 100 | 80.9 | – | – | – | – | – | – | – | – | – | –
8 | CN(C)C(=O)Oc1ccc(C(=S)Nc2ccccc2)cc1 | > 100 | > 100 | > 100 | > 100 | > 100 | > 100 | > 100 | – | > 100 | – | – | – | – | – | – | – | – | –
9 | CCN(CC)CCNc1ccc([N+](=O)[O-])c2sc3cc(Cl)ccc3c(=O)c12 | > 100 | > 100 | > 100 | > 100 | > 100 | > 100 | > 100 | – | 25.6 | 3.11 | 21.8 | 10.7 | 29.8 | 3.93 | 2.89 | 5.31 | 3.24 | –
10 | COc1cc2c(cc1OCCCOc1ccc(-c3cc4ccccc4c4ccccc34)cc1)N=C[C@@H]1CCCN1C2=O | 2.09 | 0.521 | 2.3 | 0.598 | 2.44 | 2.01 | – | 2.73 | 2.16 | 0.632 | 0.0467 | 1.1 | 0.0887 | 1.19 | 0.724 | 0.894 | – | 1.28
11 | S=c1[nH]nc(CCCCCCCCc2n[nH]c(=S)o2)o1 | – | > 100 | > 100 | – | > 100 | > 100 | > 100 | > 100 | > 100 | – | – | – | – | – | – | – | – | –
12 | C/C(Nc1ccc(Cl)cc1)=C1/CCOC1=O | > 100 | > 100 | > 100 | > 100 | – | > 49 | > 100 | > 100 | > 100 | – | – | – | – | – | – | – | – | –
13 | O=C(O)C1(C(O)c2ccccc2)SCCCS1 (stereo not drawn) | > 10 | > 10 | > 10 | > 10 | – | > 10 | > 10 | > 10 | > 10 | – | – | – | – | – | – | – | – | –
14 | O=c1c2cc(I)ccc2nc(-c2cccs2)n1O | > 100 | > 100 | > 100 | 77.5 | > 100 | 61.2 | > 100 | > 100 | – | – | – | – | – | – | – | – | – | –
15 | CC(=O)C(C(C)=O)[C@H]1OC(C)(C)O[C@H]1[C@H]1COC(C)(C)O1 | > 100 | 58.8 | > 100 | > 100 | 32.5 | > 100 | > 100 | – | > 100 | – | – | – | – | – | – | – | – | –
16 | c1ccc(-c2c(-c3[nH]c4ccccc4c3-c3ccccc3)[nH]c3ccccc23)cc1 | 21.6 | 22.1 | 14.1 | 8.44 | 3.53 | 13.5 | 13.4 | 25.6 | – | – | – | – | – | – | – | – | – | –
17 | CC(C)(CN1CCCCC1)C(=O)CC(SCCS(=O)(=O)O)c1ccc(Cl)cc1 (stereo not drawn) | 13.6 | 18.8 | 11.8 | – | 8.94 | 23.5 | 13.6 | 27.9 | 13.5 | – | – | – | – | – | – | – | – | –
18 | CCc1cc2c(c3c1CCCC3=O)CC1(C2)Cc2cc(CC)c3c(c2C1)C(=O)CCC3 | – | > 100 | > 100 | > 100 | > 100 | > 100 | > 100 | > 100 | > 100 | – | – | – | – | – | – | – | – | –
19 | O=C1/C(=C/c2ccc(Cl)cc2)Oc2ccccc21 | > 100 | – | 46.1 | 90.3 | > 100 | 35 | > 100 | 68 | – | – | – | – | – | – | – | – | – | –
20 | CC(=O)[C@]1(O)Cc2c(O)c3c(c(O)c2[C@@H](OC2CC(N)C(O)C(C)O2)C1)C(=O)c1c(OCc2ccccc2)cccc1C3=O (stereo partly drawn) | 5.63 | 58.4 | 11.1 | 8.11 | – | 6.93 | 1.79 | 5.74 | 21.8 | – | – | – | – | – | – | – | – | –
21 | CC(=O)O[C@H]1C(=O)[C@@]2(C)[C@H]([C@H](OC(=O)c3ccco3)[C@]3(O)C[C@H](OC(=O)[C@H](O)[C@@H](NC(=O)c4ccccc4)c4ccccc4)C(C)=C1C3(C)C)[C@]1(OC(C)=O)CO[C@@H]1C[C@@H]2O | > 25 | 0.578 | > 25 | > 25 | > 5.82 | > 25 | – | > 5.05 | > 25 | – | – | – | – | – | – | – | – | –
22 | CCOC(=O)C1C(c2ccc(OC)cc2)c2c([nH]n(-c3ccccc3)c2=O)CC1(C)O (stereo not drawn) | > 100 | > 100 | > 100 | > 100 | 50.4 | > 100 | > 100 | – | > 100 | – | – | – | – | – | – | – | – | –
